This experiment addresses T1, brain acetylcholinesterase (AChE) (Rattus norvegicus, UniProt P37136).
T1 construct: corpora striata dissected free, weighed and homogenized in 19 volumes; from tissue; host or cells: corpora striata of male Wistar rats, whole homogenate
T1 sequence (P37136 32-614): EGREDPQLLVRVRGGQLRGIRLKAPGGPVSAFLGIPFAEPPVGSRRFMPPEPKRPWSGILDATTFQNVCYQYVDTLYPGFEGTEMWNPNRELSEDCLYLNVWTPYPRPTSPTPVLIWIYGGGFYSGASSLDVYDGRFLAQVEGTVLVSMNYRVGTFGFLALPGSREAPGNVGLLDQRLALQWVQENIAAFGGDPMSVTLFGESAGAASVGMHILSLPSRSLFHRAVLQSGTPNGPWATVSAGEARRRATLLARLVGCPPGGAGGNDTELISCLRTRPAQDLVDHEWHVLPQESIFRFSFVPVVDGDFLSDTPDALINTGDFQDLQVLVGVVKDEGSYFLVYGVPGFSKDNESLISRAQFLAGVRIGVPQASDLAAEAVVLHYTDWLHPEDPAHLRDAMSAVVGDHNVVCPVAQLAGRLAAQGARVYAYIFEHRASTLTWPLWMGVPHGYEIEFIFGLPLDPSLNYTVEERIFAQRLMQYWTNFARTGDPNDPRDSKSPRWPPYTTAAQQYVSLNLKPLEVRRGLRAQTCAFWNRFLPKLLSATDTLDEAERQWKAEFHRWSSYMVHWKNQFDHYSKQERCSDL
The experiment is described as follows: In Vitro Inhibition of Acetylcholinesterase Activity in Rat Striatum. The experiment is classed as biochemical, rat (male Wistar). An excerpt: Cholinesterases are found throughout the body, both in the brain and in serum. However, only brain acetylcholinesterase (AChE) distribution is correlated with central cholinergic innervation. […] We have determined in vitro inhibition of acetylcholinesterase activity in rat striatum according to the method described below.
The method described below was used in this invention for assaying anticholinesterase activity.
1. 0.05M Phosphate buffer, pH 7.2
(c) add (a) to (b) until pH reaches 7.2
(a) 9.9 mg 5,5-dithiobisnitrobenzoic acid (DTNB) (0.25 mM)
(b) 99 mg s-acetylthiocholine chloride (5 mM)
(c) q.s. to 100 ml with 0.05M phosphate buffer, pH 7.2 (reagent 1)
Male Wistar rats are decapitated, brains rapidly removed, corpora striata dissected free, weighed and homogenized in 19 volumes (approximately 7 mg protein/ml) of 0.05M phosphate buffer, pH 7.2 using a Potter-Elvehjem homogenizer. […]
Using the indicated instrument settings the ABA-100 automatically reads the color reaction and prints out the results in enzyme units after 15 minutes.
2. The enzyme activity can also be measured with a Gilford 250 spectrophotometer. […]
The uninhibited activity of the enzyme (tissue homogenate) is first determined. […] The reaction rate is determined by the slope of the recorded absorbance change. The actual rate (moles/liter/min) can be calculated as described in the following formula

From US5010083A, “2,6-methano-1,3-benzodiazocine compounds which have useful pharmaceutical utility” (priority 1989, dated 1991) come the findings set out here.

Structures can show the parent of a compound that is named as a salt.

With `CN1CCC2CC1N(C)c1ccc(OC(=O)NC3CCCCC3)cc12` (centres unmarked) [1,2,3,4,5,6-Hexahydro-1,3-dimethyl-2,6-methano-1,3-benzodiazocin-8-ol, cyclohexyl carbamate], the IC50 worked out at 10.7 µM.

`CNC(=O)Oc1ccc2c(c1)C1CCN(C)C(C1)N2C` (centres unmarked) [1,2,3,4,5,6-Hexahydro-1,3-dimethyl-2,6-methano-1,3-benzodiazocin-8-ol, methyl carbamate fumarate] yielded an IC50 of 0.058 µM.

The term IC50 denotes the concentration that gives 50% inhibition. A lower IC50 goes with greater potency.
